Values after ≈ are worked out from the molar mass of the structure shown. Where a SMILES comes first, the peptide text is derived from it. The star is where a group is joined. Palmitoyl = CCCCCCCCCCCCCCCC(=O)*; Myristoyl = CCCCCCCCCCCCCC(=O)*

Data on four molecules can be found in article PMC9855884, “Glycosylated Lipopeptides—Synthesis and Evaluation of Antimicrobial Activity and Cytotoxicity” (Biomolecules, 2023).

One series concerns E. faecium ATCC 700221.
Assay: not given
The class given is cell-based, Enterococcus faecium. The note with it: ATCC 700221, 18 h. The protocol: (§1) The Acinetobacter baumannii ATCC BAA-1605, Enterococcus faecium ATCC 700221, Klebsiella aerogenes ATCC 13048, Klebsiella pneumoniae ATCC 700603, Pseudomonas aeruginosa ATCC 9027, Staphylococcus aureus ATCC 33591, Candida glabrata ATCC 15126, strains were acquired from the American Type Culture Collection (ATCC). All the strains were stored at −80 °C in Roti-Store cryo vials and were transferred into fresh Mueller–Hinton broth (MHB, Becton Dickinson, Warsaw, Poland) for bacteria or RPMI-1640 (Sigma-Aldrich, Steinheim, Germany) for fungi before the tests and incubated for 24 h at 37 °C. Then, the cultures were seeded on the Mueller–Hinton agar (BioMaxima, Lublin, Poland) or Sabouraud dextrose agar (SDA, BioMaxima, Lublin, Poland) plates, respectively, and incubated as just mentioned. These agar cultures were used for further microbiological assays. Cell densities for all assays were adjusted spectrophotometrically (Multiskan GO Microplate Spectrophotometer, Thermo Fisher Scientific, Vantaa, Finland) at 600 and 530 nm for bacteria and fungi, respectively.
(§2) The MICs were determined using a broth microdilution method according to the Clinical and Laboratory Standard Institute guidelines. For this purpose, initial inoculums of bacteria (5 × 10^5 CFU/mL) in MHB and yeasts (2 × 10^3 CFU/mL) in RPMI-1640 with 2% D-glucose were exposed to the ranging concentration of lipopeptides (1–512 μg/mL) and incubated at 37 °C for 18 h and 24 h, respectively. The experiments were conducted on 96-well microtiter polystyrene plates (Kartell, Italy). The growth was assessed visually after incubation and the MIC was assumed as the lowest peptide concentration at which a noticeable growth of microorganisms was inhibited. All experiments were conducted in triplicate.
A word on the MIC: it is the smallest concentration in the dilution series that meets the test's criterion for growth inhibition. `CCCCCCCCCCCCCC(=O)N[C@@H](CCCNC(=N)N)C(=O)N[C@@H](CO)C(=O)N[C@@H](CCCNC(=N)N)C(N)=O` [Peptide 2, C14-RSR-NH2] (Myristoyl-Arg-Ser-Arg-NH2) had an MIC of 8 µg/mL (≈ 12.8 µM).
The same measure, in the same setting: with `CCCCCCCCCCCCCC(=O)N[C@@H](CCCNC(=N)N)C(=O)N[C@@H](CCCNC(=N)N)C(=O)N[C@@H](CO)C(N)=O` [Peptide 3, C14-RRS-NH2] (Myristoyl-Arg-Arg-Ser-NH2) the figure was 8 µg/mL (≈ 12.8 µM).
On the same count and under the same terms, then `CCCCCCCCCCCCCCCC(=O)N[C@@H](CO)C(=O)N[C@@H](CCCNC(=N)N)C(=O)N[C@@H](CCCNC(=N)N)C(N)=O` [Peptide 4, C16-SRR-NH2] (Palmitoyl-Ser-Arg-Arg-NH2), with 8 µg/mL (≈ 12.2 µM).
Same read-out and setting: with `CCCCCCCCCCCCCCCC(=O)N[C@@H](CCCNC(=N)N)C(=O)N[C@@H](CO)C(=O)N[C@@H](CCCNC(=N)N)C(N)=O` [Peptide 5, C16-RSR-NH2] (Palmitoyl-Arg-Ser-Arg-NH2) the figure was 8 µg/mL (≈ 12.2 µM).

A further series relates to S. aureus ATCC 33591.
Assay: not given
In kind it is cell-based, Staphylococcus aureus. Conditions: ATCC 33591, 18 h. The protocol:
as §1, §2
In turn, `CCCCCCCCCCCCCC(=O)N[C@@H](CCCNC(=N)N)C(=O)N[C@@H](CO)C(=O)N[C@@H](CCCNC(=N)N)C(N)=O` [Peptide 2, C14-RSR-NH2] (Myristoyl-Arg-Ser-Arg-NH2) showed a minimal inhibitory concentration (MIC) of 8 µg/mL (≈ 12.8 µM).
Still for that read-out and setting: with `CCCCCCCCCCCCCC(=O)N[C@@H](CCCNC(=N)N)C(=O)N[C@@H](CCCNC(=N)N)C(=O)N[C@@H](CO)C(N)=O` [Peptide 3, C14-RRS-NH2] (Myristoyl-Arg-Arg-Ser-NH2) the figure was 16 µg/mL (≈ 25.5 µM); with `CCCCCCCCCCCCCCCC(=O)N[C@@H](CO)C(=O)N[C@@H](CCCNC(=N)N)C(=O)N[C@@H](CCCNC(=N)N)C(N)=O` [Peptide 4, C16-SRR-NH2] (Palmitoyl-Ser-Arg-Arg-NH2), 8 µg/mL (≈ 12.2 µM).
The same measure, in the same setting: then `CCCCCCCCCCCCCCCC(=O)N[C@@H](CCCNC(=N)N)C(=O)N[C@@H](CO)C(=O)N[C@@H](CCCNC(=N)N)C(N)=O` [Peptide 5, C16-RSR-NH2] (Palmitoyl-Arg-Ser-Arg-NH2), with 8 µg/mL (≈ 12.2 µM).

The next series relates to K. pneumoniae ATCC 700603.
Assay: not given
In kind it is cell-based, Klebsiella pneumoniae. Conditions: ATCC 700603, 18 h. The protocol:
as §1, §2
With `CCCCCCCCCCCCCC(=O)N[C@@H](CCCNC(=N)N)C(=O)N[C@@H](CO)C(=O)N[C@@H](CCCNC(=N)N)C(N)=O` [Peptide 2, C14-RSR-NH2] (Myristoyl-Arg-Ser-Arg-NH2), the MIC is given as 512 µg/mL (≈ 817 µM).
Still for that read-out and setting: with `CCCCCCCCCCCCCC(=O)N[C@@H](CCCNC(=N)N)C(=O)N[C@@H](CCCNC(=N)N)C(=O)N[C@@H](CO)C(N)=O` [Peptide 3, C14-RRS-NH2] (Myristoyl-Arg-Arg-Ser-NH2) the figure was 512 µg/mL (≈ 817 µM); with `CCCCCCCCCCCCCCCC(=O)N[C@@H](CO)C(=O)N[C@@H](CCCNC(=N)N)C(=O)N[C@@H](CCCNC(=N)N)C(N)=O` [Peptide 4, C16-SRR-NH2] (Palmitoyl-Ser-Arg-Arg-NH2), 512 µg/mL (≈ 782 µM); with `CCCCCCCCCCCCCCCC(=O)N[C@@H](CCCNC(=N)N)C(=O)N[C@@H](CO)C(=O)N[C@@H](CCCNC(=N)N)C(N)=O` [Peptide 5, C16-RSR-NH2] (Palmitoyl-Arg-Ser-Arg-NH2), 64 µg/mL (≈ 97.7 µM).

Another series deals with A. baumannii ATCC BAA 1605.
Assay: not given
The note with it: ATCC BAA 1605, 18 h. In kind it is cell-based, Acinetobacter baumannii. The procedure: as §1, §2
`CCCCCCCCCCCCCC(=O)N[C@@H](CCCNC(=N)N)C(=O)N[C@@H](CO)C(=O)N[C@@H](CCCNC(=N)N)C(N)=O` [Peptide 2, C14-RSR-NH2] (Myristoyl-Arg-Ser-Arg-NH2): the minimum inhibitory concentration (MIC) is reported as 64 µg/mL (≈ 102 µM).
On the same count and under the same terms, with `CCCCCCCCCCCCCC(=O)N[C@@H](CCCNC(=N)N)C(=O)N[C@@H](CCCNC(=N)N)C(=O)N[C@@H](CO)C(N)=O` [Peptide 3, C14-RRS-NH2] (Myristoyl-Arg-Arg-Ser-NH2) the figure was 64 µg/mL (≈ 102 µM); with `CCCCCCCCCCCCCCCC(=O)N[C@@H](CO)C(=O)N[C@@H](CCCNC(=N)N)C(=O)N[C@@H](CCCNC(=N)N)C(N)=O` [Peptide 4, C16-SRR-NH2] (Palmitoyl-Ser-Arg-Arg-NH2), 32 µg/mL (≈ 48.9 µM).
Molecule `CCCCCCCCCCCCCCCC(=O)N[C@@H](CCCNC(=N)N)C(=O)N[C@@H](CO)C(=O)N[C@@H](CCCNC(=N)N)C(N)=O` [Peptide 5, C16-RSR-NH2] (Palmitoyl-Arg-Ser-Arg-NH2) had an MIC of 32 µg/mL (≈ 48.9 µM).

A further series concerns C. glabrata ATCC 15126.
Assay: not given
In kind it is cell-based, Candida glabrata. Conditions: ATCC 15126, 24 h. The protocol:
as §1, §2
`CCCCCCCCCCCCCC(=O)N[C@@H](CCCNC(=N)N)C(=O)N[C@@H](CO)C(=O)N[C@@H](CCCNC(=N)N)C(N)=O` [Peptide 2, C14-RSR-NH2] (Myristoyl-Arg-Ser-Arg-NH2) gave an MIC of 32 µg/mL (≈ 51 µM).
The same measure, in the same setting: with `CCCCCCCCCCCCCC(=O)N[C@@H](CCCNC(=N)N)C(=O)N[C@@H](CCCNC(=N)N)C(=O)N[C@@H](CO)C(N)=O` [Peptide 3, C14-RRS-NH2] (Myristoyl-Arg-Arg-Ser-NH2) the figure was 32 µg/mL (≈ 51 µM); with `CCCCCCCCCCCCCCCC(=O)N[C@@H](CO)C(=O)N[C@@H](CCCNC(=N)N)C(=O)N[C@@H](CCCNC(=N)N)C(N)=O` [Peptide 4, C16-SRR-NH2] (Palmitoyl-Ser-Arg-Arg-NH2), 4 µg/mL (≈ 6.11 µM).
On the same count and under the same terms, with `CCCCCCCCCCCCCCCC(=O)N[C@@H](CCCNC(=N)N)C(=O)N[C@@H](CO)C(=O)N[C@@H](CCCNC(=N)N)C(N)=O` [Peptide 5, C16-RSR-NH2] (Palmitoyl-Arg-Ser-Arg-NH2) the figure was 8 µg/mL (≈ 12.2 µM).

Tested on in another series: not listed separately
The series can be described thus: MTT assay, cytotoxicity. The class given is cell-based, human. The note with it: human, HaCaT keratinocytes, 24 h incubation at 37 °C, 0.5–500 μg/mL, six replicates per concentration, repeated at least twice. The procedure:
To evaluate the cytotoxicity of the test peptides (IC50), the classic MTT assay on 96-well plates was performed for human keratinocytes (HaCaT) which were acquired from the ATCC. The assay was based on colorimetric determination of the cell metabolic activity where the color intensity reflected the number of live cells that could be measured spectrophotometrically. The cell line was cultured in a Dulbecco’s modified Eagle Medium (Invitrogen) supplemented with 10% fetal bovine serum (v/v), 100 units/mL of penicillin, 100 μg/mL of streptomycin, and 2 mM L-glutamine and was kept at 37 °C in a humidified 5% CO2 incubator. Briefly, a day after plating of 500 cells per well, a series of concentrations (0.5–500 μg/mL) of the test compounds were applied. DMSO was added to the control cells at a final concentration of 1.0% (v/v), which was related to the maximum concentration of the solvent compounds used in the experiment. After 24 h of incubation at 37 °C (humidified 5% CO2 incubator) with the peptides, a medium containing 1 mg/mL of MTT was added to the wells up to a final concentration of 0.5 mg/mL. Subsequently, the plates were incubated at 37 °C for 4 h. Then, the medium was aspirated, and the formazan product was solubilized with DMSO. The background absorbance at 630 nm was subtracted from that at 570 nm for each well (Epoch, BioTek Instruments, Winooski, VT, USA). Six replicates were conducted for each concentration. All experiments were repeated at least twice and the resulting IC50 values were calculated with a GraFit 7 software (v. 7.0, Erithacus, Berkley, CA, USA).
The selectivity indexes were calculated for all the strains as IC50/MIC. According to IC50, in most cases, glycosylation caused only a slight decrease in toxicity. However, in contrast with SI calculated for HC50, the differences between USCLs and gUSCLs are not so distinct. […] Moreover, toxicity of USCLs and gUSCLs is high and exceeds their antimicrobial activity. The lipopetides were not selective against Gram-negative strains (K. pneumoniae, A. baumannii, P. aeruginosa, K. aerogenes) over human cells. A few USCLs were selective (SI > 1) against E. faecium and S. aureus with SI up to 1.87; and some gUSCLs were selective against E. faecium but not against S. aureus, with SI between 0.63 and 1.73. […] In this case, SI of gUSCLs was noticeably […] than that of corresponding parent USCLs (2.07, 1.99, 2.67 vs. 2.53, 2.36, 3.46, respectively). Selectivity indexes were plotted against adjusted retention time (Figures S15–S21). A moderate linear correlation was found in USCLs and K. pneumoniae, C. glabrata, and gUSCLs and K. pneumoniae, K. aerogenes (R^2 between 0.6064 and 0.6481). A relatively high linear correlation was obtained for USCLs and K. aerogenes (R^2 of 0.8214) and also for gUSCLs and C. glabrata (R^2 of 0.9223).
A general note: Formazan colour is commonly taken as a measure of viable cells.
In general, IC50 refers to the concentration needed to halve the response being measured. Read a low IC50 as higher potency. With `CCCCCCCCCCCCCC(=O)N[C@@H](CCCNC(=N)N)C(=O)N[C@@H](CO)C(=O)N[C@@H](CCCNC(=N)N)C(N)=O` [Peptide 2, C14-RSR-NH2] (Myristoyl-Arg-Ser-Arg-NH2), half-maximal inhibition (IC50 at 24 h) required 15 ± 2.05 µg/mL (≈ 23.9 µM).
Still for that read-out and setting: with `CCCCCCCCCCCCCC(=O)N[C@@H](CCCNC(=N)N)C(=O)N[C@@H](CCCNC(=N)N)C(=O)N[C@@H](CO)C(N)=O` [Peptide 3, C14-RRS-NH2] (Myristoyl-Arg-Arg-Ser-NH2) the figure was 14.3 ± 1.96 µg/mL (≈ 22.8 µM).
Consider `CCCCCCCCCCCCCCCC(=O)N[C@@H](CO)C(=O)N[C@@H](CCCNC(=N)N)C(=O)N[C@@H](CCCNC(=N)N)C(N)=O` [Peptide 4, C16-SRR-NH2] (Palmitoyl-Ser-Arg-Arg-NH2), for which inhibition was half-maximal at 4.02 ± 1.17 µg/mL (≈ 6.14 µM) (IC50 at 24 h).
On the same count and under the same terms, with `CCCCCCCCCCCCCCCC(=O)N[C@@H](CCCNC(=N)N)C(=O)N[C@@H](CO)C(=O)N[C@@H](CCCNC(=N)N)C(N)=O` [Peptide 5, C16-RSR-NH2] (Palmitoyl-Arg-Ser-Arg-NH2) the figure was 5.72 ± 2.27 µg/mL (≈ 8.73 µM).
